Results reported in ChEMBL document CHEMBL1136846, “Investigation on the role of the tetrazole in the binding of thiotetrazolylacetanilides with HIV-1 wild type and K103N/Y181C double mutant reverse transcriptases” (Bioorg Med Chem Lett, 2009).

How the values were obtained:
[1] = biological target: Human immunodeficiency virus type 1 reverse transcriptase (Human immunodeficiency virus 1, UniProt Q72547); experiment: Inhibition of wild type HIV1 reverse transcriptase by scintillation proximity assay
[2] = tested on: Human immunodeficiency virus 1; experiment: Antiviral activity against HIV1 infected in human C8166 cells assessed as inhibition of viral replication after 3 days by ELISA; assay type: functional, organism-based; conditions: Human immunodeficiency virus 1, C8166, 72 h
[3] = tested on: Human immunodeficiency virus 1; experiment: Antiviral activity against HIV1 with transcriptase […] mutation infected in human C8166 cells assessed as inhibition of viral replication after 3 days by ELISA; assay type: functional, organism-based; conditions: Human immunodeficiency virus 1, C8166, 72 h

SMILES	IC50 [1]	EC50 [2]	EC50 [3]
Cc1ccc(-n2nnnc2SCC(=O)Nc2ccc(-c3ccc(OCC(=O)O)cc3)cc2Cl)c(Cl)c1	0.0019 µM	–	–
Cc1[nH]nc(OCC(=O)Nc2ccc(-c3ccc(CC(=O)O)cc3)cc2Cl)c1-c1ccc(C(C)(C)C)cc1Cl	2.09 µM	–	–
Cc1ccc(-n2cc(C)nc2SCC(=O)Nc2ccccc2Cl)c(Cl)c1	> 1 µM	–	–
Cc1[nH]nc(OCC(=O)Nc2ccc(C#CC(C)(C)C(=O)O)cc2Cl)c1-c1ccc(C(C)(C)C)cc1Cl	2.4 µM	3.88 µM	0.073 µM
Cc1ccc(-c2ccccc2OCC(=O)Nc2ccc(-c3ccc(CC(=O)O)cc3)cc2Cl)c(Cl)c1	0.177 µM	–	–
Cc1ccc(-c2c(SCC(=O)Nc3ccc(-c4ccc(CC(=O)O)cc4)cc3Cl)cnn2C)c(Cl)c1	0.0019 µM	–	–
Cc1ccc(-c2c(SCC(=O)Nc3ccc(-c4ccc(OCC(=O)O)cc4)cc3Cl)ccn2C)c(Cl)c1	> 1 µM	–	–
Cc1ccc(-n2c(C)cnc2SCC(=O)Nc2ccc(-c3ccc(CC(=O)O)cc3)cc2Cl)c(Cl)c1	0.0095 µM	–	–
Cc1ccc(-c2nnsc2SCC(=O)Nc2ccc(-c3ccc(CC(=O)O)cc3)cc2Cl)c(Cl)c1	0.002 µM	–	–
Cc1ccc(-c2ncsc2SCC(=O)Nc2ccc(-c3ccc(CC(=O)O)cc3)cc2Cl)c(Cl)c1	0.2 µM	–	–
C/C(=C/CCC(=O)Nc1ccc(-c2ccc(OCC(=O)O)cc2)cc1Cl)c1ccc(C)cc1Cl	0.015 µM	–	–
C/C(=C\CCC(=O)Nc1ccc(-c2ccc(OCC(=O)O)cc2)cc1Cl)c1ccc(C)cc1Cl	0.272 µM	–	–
Cc1ccc(-c2ncoc2SCC(=O)Nc2ccc(-c3ccc(CC(=O)O)cc3)cc2Cl)c(Cl)c1	0.365 µM	–	–
CC(C)(C)c1ccc(-c2c[nH]nc2OCC(=O)Nc2ccc(-c3ccc(CC(=O)O)cc3)cc2Cl)c(Cl)c1	> 3.3 µM	4.87 µM	0.444 µM
Cc1ccc(-n2nccc2SCC(=O)Nc2ccc(-c3ccc(CC(=O)O)cc3)cc2Cl)c(Cl)c1	0.0079 µM	–	–
Cc1ccc(-n2ncc(C)c2SCC(=O)Nc2ccc(-c3ccc(CC(=O)O)cc3)cc2Cl)c(Cl)c1	> 10 µM	–	–
Cc1ccc(-n2nccc2OCC(=O)Nc2ccc(-c3ccc(CC(=O)O)cc3)cc2Cl)c(Cl)c1	0.018 µM	–	–
Cc1ccc(-c2ccccc2SCC(=O)Nc2ccc(-c3ccc(CC(=O)O)cc3)cc2Cl)c(Cl)c1	0.018 µM	–	–
Cc1ccc(-n2nncc2SCC(=O)Nc2ccc(-c3ccc(CC(=O)O)cc3)cc2Cl)c(Cl)c1	0.0024 µM	–	–
Cc1[nH]nc(OCC(=O)Nc2ccc(C#CC(C)(C)CO)cc2Cl)c1-c1ccc(C(C)(C)C)cc1Cl	> 3.33 µM	> 5 µM	0.177 µM
C/C(=C/CCC(=O)Nc1ccc(-c2ccc(CC(=O)O)cc2)cc1Cl)c1ccc(C)cc1Cl	0.0024 µM	–	–
